Results on 18 compounds are retold here after PubChem BioAssay (NCI).

SMILES strings stand for the structures.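 A five-concentration, 48-hour dose response in 96-well plates underlies each endpoint, interpolated linearly between surrounding concentrations. TGI marks complete inhibition of growth.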 Where only a bound is given, the exact number is not on record here.

The first test deals with NCI-H460 lung. Kind of test: DTP human tumour cell line panel, 48 h.
Compound `O=C1C/C(=C/c2ccc(/C=C3/CC(=O)N(c4cccc(Br)c4)C3=O)cc2)C(=O)N1c1cccc(Br)c1` had a TGI greater than 100 µM.
Still for that read-out and setting: next, `CCOC(C[C@H](O)[C@H]1COC(=S)S1)OCC`: greater than 100 µM; `CCCCCCn1c(SCC)c2ccccc2c1-c1nc(F)nc(F)n1`: greater than 100 µM.
In turn, `CN(C(=O)C12C3C4C1C1C2C3C41I)C(C)(C)C` (configuration not stated) had a TGI greater than 100 µM.
Same read-out and setting: then `Cn1c(O)c(C(=O)Nc2cccs2)c(=O)[nH]c1=S`, with 43.7 µM; and `CC(=O)/C(=C\c1ccco1)C(=O)Nc1ccccc1`, with greater than 100 µM.
The same measure, in the same setting: then `NCC1(N2CCOCC2)C2CCCC21CO` (configuration not stated), with greater than 100 µM; and `CC#COP(=O)(OCC)OCC`, with greater than 100 µM.
On the same count and under the same terms, then `C=CCONC(=O)c1ccc(Cl)cc1`, with greater than 100 µM; and `O=C(CC1Sc2ccccc2NC1=O)Nc1cc(Cl)ccc1Cl` (configuration not stated), with greater than 100 µM.
`COc1cc(/C=C/C(=O)c2sc(-n3nc(-c4ccccc4)cc3-c3ccccc3)nc2C)ccc1O` came in with a TGI greater than 100 µM.
Same read-out and setting: then `O=C(CCn1[nH]c(=O)c(Cl)c(Cl)c1=O)NOCCCc1ccccc1`, with greater than 100 µM; and `CC(C)=CCCC1(C)C=Cc2c(c(C)cc3c2[nH]c2cc(O)ccc23)O1` (configuration not stated), with greater than 25 µM.
For `COc1cc(NC(C)=O)c2[nH]c3c(C)cc(NC(C)=O)c(C)c3c2c1`, the TGI is greater than 100 µM.
As for `COc1cc(/C=C\c2ccccn2)cc(OC)c1OC`, the TGI is greater than 100 µM.
Still for that read-out and setting: then `O=P(O)(OCC(O)O)OCC(O)O`, with greater than 100 µM; and `CCOC(=O)CSc1ccnc(=O)[nH]1`, with greater than 100 µM; and `c1ccc(Nc2nnc(CSc3nc(-c4ccccc4)c(-c4ccccc4)[nH]3)s2)cc1`, with 36.3 µM.

For another test, the system named is MALME-3M melanoma. Kind of test: DTP human tumour cell line panel, 48 h.
The compound `O=C1C/C(=C/c2ccc(/C=C3/CC(=O)N(c4cccc(Br)c4)C3=O)cc2)C(=O)N1c1cccc(Br)c1` came in with a TGI greater than 100 µM.
`CCOC(C[C@H](O)[C@H]1COC(=S)S1)OCC`: the total growth inhibition concentration (TGI) was greater than 100 µM.
On to `CCCCCCn1c(SCC)c2ccccc2c1-c1nc(F)nc(F)n1`, for which the TGI was greater than 100 µM.
The compound `CN(C(=O)C12C3C4C1C1C2C3C41I)C(C)(C)C` (configuration not stated) showed a TGI greater than 100 µM.
The compound `Cn1c(O)c(C(=O)Nc2cccs2)c(=O)[nH]c1=S` returned a TGI of 29.5 µM.
Same read-out and setting: then `CC(=O)/C(=C\c1ccco1)C(=O)Nc1ccccc1`, with greater than 100 µM.
Same read-out and setting: next, `NCC1(N2CCOCC2)C2CCCC21CO` (configuration not stated): greater than 100 µM.
As for `CC#COP(=O)(OCC)OCC`, the TGI is greater than 100 µM.
The compound `C=CCONC(=O)c1ccc(Cl)cc1` yielded a TGI greater than 100 µM.
`O=C(CC1Sc2ccccc2NC1=O)Nc1cc(Cl)ccc1Cl` (configuration not stated) yielded a TGI greater than 100 µM.
Still for that read-out and setting: next, `COc1cc(/C=C/C(=O)c2sc(-n3nc(-c4ccccc4)cc3-c3ccccc3)nc2C)ccc1O`: greater than 100 µM; `O=C(CCn1[nH]c(=O)c(Cl)c(Cl)c1=O)NOCCCc1ccccc1`: greater than 100 µM.
Still for that read-out and setting: next, `CC(C)=CCCC1(C)C=Cc2c(c(C)cc3c2[nH]c2cc(O)ccc23)O1` (configuration not stated): greater than 25 µM; `COc1cc(/C=C\c2ccccn2)cc(OC)c1OC`: greater than 100 µM.
On the same count and under the same terms, then `O=P(O)(OCC(O)O)OCC(O)O`, with greater than 100 µM; and `CCOC(=O)CSc1ccnc(=O)[nH]1`, with greater than 100 µM; and `c1ccc(Nc2nnc(CSc3nc(-c4ccccc4)c(-c4ccccc4)[nH]3)s2)cc1`, with 34.6 µM.

The subject of a further test is HOP-92 NSCLC. The test is described as follows: DTP human tumour cell line panel, 48 h.
In turn, `O=C1C/C(=C/c2ccc(/C=C3/CC(=O)N(c4cccc(Br)c4)C3=O)cc2)C(=O)N1c1cccc(Br)c1` came in with a TGI greater than 100 µM.
With `CCCCCCn1c(SCC)c2ccccc2c1-c1nc(F)nc(F)n1`, the TGI is greater than 100 µM.
On the same count and under the same terms, next, `Cn1c(O)c(C(=O)Nc2cccs2)c(=O)[nH]c1=S`: 33.4 µM; `CC(=O)/C(=C\c1ccco1)C(=O)Nc1ccccc1`: greater than 100 µM.
Same read-out and setting: next, `NCC1(N2CCOCC2)C2CCCC21CO` (configuration not stated): greater than 100 µM; `C=CCONC(=O)c1ccc(Cl)cc1`: greater than 100 µM; `O=C(CC1Sc2ccccc2NC1=O)Nc1cc(Cl)ccc1Cl` (configuration not stated): greater than 100 µM.
The same measure, in the same setting: then `COc1cc(/C=C/C(=O)c2sc(-n3nc(-c4ccccc4)cc3-c3ccccc3)nc2C)ccc1O`, with greater than 100 µM; and `O=C(CCn1[nH]c(=O)c(Cl)c(Cl)c1=O)NOCCCc1ccccc1`, with greater than 100 µM; and `CC(C)=CCCC1(C)C=Cc2c(c(C)cc3c2[nH]c2cc(O)ccc23)O1` (configuration not stated), with greater than 25 µM.
As to `COc1cc(NC(C)=O)c2[nH]c3c(C)cc(NC(C)=O)c(C)c3c2c1`, the concentration for total growth inhibition (TGI) is greater than 100 µM.
As to `COc1cc(/C=C\c2ccccn2)cc(OC)c1OC`, the TGI was greater than 100 µM.
On to `O=P(O)(OCC(O)O)OCC(O)O`, for which the TGI is greater than 100 µM.
Take `c1ccc(Nc2nnc(CSc3nc(-c4ccccc4)c(-c4ccccc4)[nH]3)s2)cc1`: the TGI stood at 37.7 µM.

A further test relates to SF-268 CNS. The test is described as follows: DTP human tumour cell line panel, 48 h.
Compound `O=C1C/C(=C/c2ccc(/C=C3/CC(=O)N(c4cccc(Br)c4)C3=O)cc2)C(=O)N1c1cccc(Br)c1` had a TGI greater than 100 µM.
`CCOC(C[C@H](O)[C@H]1COC(=S)S1)OCC` had a TGI greater than 100 µM.
In turn, `CCCCCCn1c(SCC)c2ccccc2c1-c1nc(F)nc(F)n1` gave a TGI greater than 100 µM.
Compound `CN(C(=O)C12C3C4C1C1C2C3C41I)C(C)(C)C` (configuration not stated) showed a TGI greater than 100 µM.
With `Cn1c(O)c(C(=O)Nc2cccs2)c(=O)[nH]c1=S`, the concentration for total growth inhibition (TGI) is 41.9 µM.
In turn, `CC(=O)/C(=C\c1ccco1)C(=O)Nc1ccccc1` registered a TGI greater than 100 µM.
In turn, `NCC1(N2CCOCC2)C2CCCC21CO` (configuration not stated) registered a TGI greater than 100 µM.
Take `CC#COP(=O)(OCC)OCC`: the total growth inhibition concentration (TGI) was greater than 100 µM.
The same measure, in the same setting: then `C=CCONC(=O)c1ccc(Cl)cc1`, with greater than 100 µM; and `O=C(CC1Sc2ccccc2NC1=O)Nc1cc(Cl)ccc1Cl` (configuration not stated), with greater than 100 µM; and `COc1cc(/C=C/C(=O)c2sc(-n3nc(-c4ccccc4)cc3-c3ccccc3)nc2C)ccc1O`, with greater than 100 µM.
Same read-out and setting: then `O=C(CCn1[nH]c(=O)c(Cl)c(Cl)c1=O)NOCCCc1ccccc1`, with greater than 100 µM; and `CC(C)=CCCC1(C)C=Cc2c(c(C)cc3c2[nH]c2cc(O)ccc23)O1` (configuration not stated), with greater than 25 µM.
The same measure, in the same setting: then `COc1cc(NC(C)=O)c2[nH]c3c(C)cc(NC(C)=O)c(C)c3c2c1`, with greater than 100 µM.
Compound `COc1cc(/C=C\c2ccccn2)cc(OC)c1OC` yielded a total growth inhibition concentration (TGI) greater than 100 µM.
Same read-out and setting: then `O=P(O)(OCC(O)O)OCC(O)O`, with greater than 100 µM; and `CCOC(=O)CSc1ccnc(=O)[nH]1`, with greater than 100 µM.
Consider `c1ccc(Nc2nnc(CSc3nc(-c4ccccc4)c(-c4ccccc4)[nH]3)s2)cc1`, for which the TGI came out at 46.2 µM.

For orientation: TGI means the concentration giving total growth inhibition. A higher TGI goes with lower sensitivity of the cells.
